Values after ≈ are worked out from the molar mass of the structure shown.
Experiments:
[1] = test system: Human alphaherpesvirus 2; experiment: Compound was tested for antiviral activity against HSV-2; format: functional, organism-based
[2] = test system: MT4; experiment: Compound was tested for antiviral activity indicative of 50% cytopathic concentration in virus (HIV-1) infected MT-4 cells.; format: functional, cell-based; settings: Homo sapiens
[3] = test system: MT4; experiment: Cytotoxicity indicative of 50% survival concentration in virus-uninfected MT-4 cells.; format: functional; settings: Homo sapiens
[4] = test system: Human alphaherpesvirus 1; experiment: Compound was tested for antiviral activity against HSV-1; format: functional, organism-based
[5] = test system: MT4; experiment: Cytotoxicity indicative of 50% survival concentration in virus -uninfected MT-4 cells.; format: functional; settings: Homo sapiens
[6] = test system: MT4; experiment: Cytotoxicity indicative of 50% survival concentration in HSV-1-uninfected MT-4 cells.; format: functional; settings: Homo sapiens
[7] = test system: MT4; experiment: Cytotoxicity indicative of 50% survival concentration in HSV-2-uninfected MT-4 cells.; format: functional; settings: Homo sapiens

Row | SMILES | EC50 [1] [µg/mL] | EC50 [2] [µg/mL] | CC50 [3] [µg/mL] | EC50 [4] [µg/mL] | CC50 [5] [µg/mL] | CC50 [6] [µg/mL] | CC50 [7] [µg/mL]
1 | CNc1ncnc2c1ncn2[C@H]1S[C@H](CO)C[C@@H]1N=[N+]=[N-] | > 100 | > 61.5 | 61.5 (≈ 201 µM) | > 100 | – | – | –
2 | [N-]=[N+]=N[C@H]1C[C@@H](CO)S[C@H]1n1cnc2c(N)ncnc21 | > 100 | > 66.6 | 66.6 (≈ 228 µM) | > 100 | – | – | –
3 | CNc1ncnc2c1ncn2[C@@H]1SC(CO)C[C@@H]1N=[N+]=[N-] (single isomer, unassigned) | > 100 | > 48.1 | 48.1 (≈ 157 µM) | > 100 | – | – | –
4 | [N-]=[N+]=N[C@H]1C[C@@H](CO)S[C@H]1n1ccc(N)nc1=O | > 100 | > 41.7 | – | > 100 | 41.7 (≈ 155 µM) | – | –
5 | Cc1cn([C@H]2S[C@H](CO)C[C@@H]2N=[N+]=[N-])c(=O)[nH]c1=O | > 100 | > 63.5 | 63.5 (≈ 224 µM) | > 100 | – | – | –
6 | Cc1cn([C@@H]2S[C@H](CO)C[C@@H]2N=[N+]=[N-])c(=O)[nH]c1=O | > 100 | > 56.5 | 56.1 (≈ 198 µM) | > 100 | – | – | –
7 | [N-]=[N+]=N[C@H]1C[C@@H](CO)S[C@@H]1n1cnc2c(N)ncnc21 | > 100 | > 17.3 | 17.3 (≈ 59.2 µM) | > 100 | – | – | –
8 | Nc1nc2c(ncn2COCCO)c(=O)[nH]1 [ACYCLOVIR] | 0.88 (≈ 3.91 µM) | – | – | 0.13 (≈ 0.577 µM) | – | > 76.6 | > 11.4
9 | Cc1cn([C@H]2C[C@H](N=[N+]=[N-])[C@@H](CO)O2)c(=O)[nH]c1=O [ZIDOVUDINE] | > 100 | 0.0005 (≈ 0.00187 µM) | 0.52 (≈ 1.95 µM) | 0.52 (≈ 1.95 µM) | – | – | –
10 | [N-]=[N+]=NC1C[C@@H](CO)S[C@@H]1n1ccc(N)nc1=O (stereo not given in full) | > 100 | > 100 | > 100 | > 100 | – | – | –

Reference: ChEMBL document CHEMBL1134898, “Synthesis and biological evaluation of novel D-2'-azido-2',3'-dideoxyarabinofuranosyl-4'-thiopyrimidines and purines” (Bioorg Med Chem Lett, 2002)
